# Test results: patent US8044057B2, “Methods for suppressing an immune response or treating a proliferative disorder” (The United States of America as represented by the …, priority 2003, dated 2011)
# Legend:
# [1] = system: A549 cells; experiment: Microarray gene expression analysis in A549 cells; assay type: cell-based, human; details: inhibitor 1 hour before L/I for 6 hours
# Description: Microarray gene expression analyses have been performed in which A549 cells were incubated without or with LY294002 or wortmannin for 1 hour before the addition of L/I for 6 hours. […] The mRNAs of other kinases that were increased by LY294002 included that encoding CK2α′ (1.8-fold; GenBank accession #M55268). Since CK2 can regulate both G1 and G2/M cell cycle transitions, the effects of LY294002 and LY303511 on CK2 activity were assessed.
# [2] = target: T1, recombinant CK2 (Homo sapiens, UniProt P68400); experiment: Casein kinase 2 activity kit, 32P incorporation into substrate peptide; assay type: biochemical
# T1 construct: purchased Upstate Biotechnology 17-132 (number of the activity kit, not of the enzyme)
# Description: FIGS. 5A-5B are bar graphs showing that LY303511 inhibits the cell cycle by causing combined G1 and G2/M arrest and that LY303511 inhibits CK2 activity. For the data shown in FIG. 5A, PASM cells were cultured in medium with FBS for 48 hours before the addition of 0-100 μM LY303511 without or with raparnycin, 400 ng/ml, for 24 hours. Cells were then harvested and incubated with propidium iodide for 2 hours before counting using a Becton-Dickson FACSCalibur. Data are the means (±SEM) of percentages of cells in G1, S, or G2/M phase of the cell cycle in three experiments with duplicate assays. *p<0.05 vs. DMSO control, or †p<0.05 vs. 10 μM LY303511, by Student's t—test. FIG. 5B is a bar graph showing that LY303511 or LY294002 inhibits CK2 in vitro. As per the manufacturer (Upstate Biotechnologies), 0 or 100 ng of recombinant CK2 were incubated with CK2 substrate peptide and ^32P-γ-ATP for 10 min with 1% DMSO or inhibitors as indicated. Data are the means of values for samples with inhibitors expressed as percentage of that for control, which was (mean±SEM) 0.2±0.03 pmol phosphate/100 ng protein/10 min. Data are from three experiments performed in duplicate. *p<0.05 by Student's t-test when compared to DMSO control.
# One specific assay for casein kinase 2 activity is available commercially as a kit from Upstate Biotechnology (New York). The assay is based on phosphorylation of a specific substrate (CK-2 substrate peptide) using the transfer of the gamma-phosphate of ^32P-ATP by casein kinase 2 during a 10 minute incubation at 30° C. The phosphorylated substrate is then separated from the residual ^32P-ATP using P81 phosphocellulose paper, and quantified by scintillation counting.
# Casein kinase 2 (CK2) activity (counts per rninute) was measured using a casein kinase 2 activity kit (Upstate Biotechnology catalogue number 17-132) by incubating recombinant 100 ng CK2, magnesium/ATP cocktail (10 mcCi ^32P-garnma-ATP, 0.675 micromoles MgCl2, 4.5 nmoles ATP), and 10 micromoles peptide substrate (arnino acid sequence RRRDDDSDDD (SEQ ID NO: 1) in 50 mcl assay buffer without or with the indicated concentrations of DMSO (1%), LY294002, LY303511, or rapamycin for 10 minutes at 30° C. Assays were stopped with 20 mcl of 40% trichloroacetic acid, and 25 mcl were spotted on P81 phosphocellulose paper squares before washing 3 times with 0.75% phosphoric acid, and once with acetone. 32P incorporation on the substrate peptide was detected by counting the phosphocellulose squares in 5 ml scintillation fluid using a Packard 100 Tri-Carb liquid scintillation counter.
# Measurement of casein kinase 2 (CK2) activity: CK2 activity (counts per minute) was measured using a CK2 activity kit (Upstate, Charlottesville, Va.) by incubating 100 ng of recombinant CK2, rnagnesium/ATP cocktail (10 μCi ^32P-gamma-ATP, 0.675 μmol MgCl2, 4.5 nmol ATP), and 10 μmol peptide substrate (amino acid sequence RRRDDDSDDD) in 50 μl assay buffer (20 mM MOPS, pH 7.2, 5 mM EGTA, 25 mM β-glycerol phosphate, 1 mM sodium orthovanadate, 1 mM dithiothreitol) without or with the indicated concentrations of LY294002, LY303511, wortmannin or rapamycin in 1% DMSO for 10 min at 30° C. Assays were stopped with 20 μl of 40% trichloroacetic acid, and samples (25 μl) of supernatant were applied to P81 phosphocellulose paper squares, which were then washed three times with 0.75% phosphoric acid, and once with acetone. ^32P in the substrate peptide was quantified using a Packard 100 Tri-Carb liquid scintillation counter on phosphocellulose squares in 5 ml of scintillation fluid. Activity is expressed as pmol phosphate incorporated per 10 minutes. CK2 activity measured in the presence of inhibitors was divided by that measured for the DMSO control (=100% control).
# T1 sequence (P68400 whole entry): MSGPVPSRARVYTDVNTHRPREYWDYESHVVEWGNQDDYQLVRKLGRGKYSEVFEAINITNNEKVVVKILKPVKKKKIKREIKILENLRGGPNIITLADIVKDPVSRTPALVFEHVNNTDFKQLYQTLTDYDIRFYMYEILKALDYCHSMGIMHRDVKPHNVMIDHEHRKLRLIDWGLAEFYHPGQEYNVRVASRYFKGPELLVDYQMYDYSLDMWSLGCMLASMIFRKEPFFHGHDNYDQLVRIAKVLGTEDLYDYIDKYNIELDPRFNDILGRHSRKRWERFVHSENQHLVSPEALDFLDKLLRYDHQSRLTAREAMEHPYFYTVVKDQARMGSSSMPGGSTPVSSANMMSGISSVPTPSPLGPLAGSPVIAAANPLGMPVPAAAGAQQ
# T1 sequence (P67870 2-215 partner limits assumed): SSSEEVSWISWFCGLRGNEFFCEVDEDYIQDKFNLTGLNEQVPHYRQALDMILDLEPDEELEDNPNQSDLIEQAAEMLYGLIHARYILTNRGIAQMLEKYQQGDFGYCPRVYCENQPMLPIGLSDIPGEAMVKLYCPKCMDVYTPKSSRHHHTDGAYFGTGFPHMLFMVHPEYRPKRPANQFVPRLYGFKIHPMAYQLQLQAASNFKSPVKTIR
smiles,measurement,setting,value
"O=c1cc(N2CCOCC2)oc2c(-c3ccccc3)cccc12 [LY294002, 2-(4-morpholinyl)-8-phenyl-4H-1-benzopyran-4-one, reference compound]",levels of mTOR mRNA,[1],1.7 fold
same,mRNA encoding CK2α′,[1],1.8 fold
same,CK2 activity,"[2]; 100 ng recombinant CK2, 10 min at 30° C.",concentration-dependent inhibition of CK2 activity
same,CK2 IC50 relative to that for LY303511,[2]; recombinant CK2 in vitro,one tenth
same,IC50,"[2]; recombinant CK2 in vitro, read-out: approximate IC50 for CK2",~10 µM
